“Also recorded” adds a separate entry of the source.
Assays:
human APOC3 = assay: 18-mer with internal spacer RNAi agents, residual mRNA in Huh7 at 15 nM; type: cell-based
Text: In the various RNAi agents described in this example, a nucleotide at any of positions 1 to 18 was individually replaced by a spacer subunit, and RNA interference activity was retained. The 3′ end of each strand terminates in a phosphate or modified internucleoside linker and further comprises, in 5′ to 3′ order, a second spacer, a second phosphate or modified internucleotide linker, and a 3′ end cap.
Similarly, U027, A027, G027 indicate that the nucleotides U, A or G, respectively, are absent and have been replaced by a spacer, which is ribitol. The target used in human APOC3. The numbers in columns 2 represent residual mRNA levels; thus, 5.8 in column 2, row 2, indicates residual mRNA level of 5.8% or 94.2% gene knockdown. SD, standard deviation.

FVII (Factor VII) = assay: RNA interference of 3′-capped mF7-III siRNAs against FVII (FIG. 2); type: cell-based, mouse; conditions: 19-mer blunt-ended mF7-III siRNA, A12S17
Hepcidin (HAMP) mRNA = assay: Hepcidin mRNA down regulation in HuH-7 cells by 18-mer HAMP siRNA-PAZ ligand conjugates; type: cell-based, Homo sapiens; conditions: format S402+ribitol+MOE clamp
Text: Potency of 18-mer HAMP (Hepcidin) siRNA-PAZ Ligand Conjugates is studied.
A variety of constructs were made using the same two sequences. […] A variety of 3′ end caps is also used.
Hepcidin mRNA down regulation in HuH-7 cells is studied at 3 doses.
Two test sequences used are hs_HAMP_400 and 402. “hs” indicates “Homo sapiens”. 400 is a sequence beginning at position 400 and 402 is an overlapping sequence […]
Various other hs_HAMP 400 and 402 are depicted in FIG. 5A (Guide or antisense strand) and 5B (corresponding Sense strand).
This Table indicates the Nickname (“Oligo Identifier”) for the 3′ end cap, and the DMT, Succinate and Carboxylate variants thereof; the Carboxylate Kd; the KD (knockdown) mediated by a Hepcidin RNAi agent comprising the 3′ end cap (format: S402+ribitol+MOE clamp) at 5 nM in vitro; and the approximate (approx.) IC50

[1] = test system: hepcidin (Hamp1) mRNA in liver; assay: In vivo hepcidin knockdown in mouse liver (mRNA-qPCR), LNP569 Hamp254 18-mers; conditions: 1×3 mg/kg i.v., 48 h (day 2)
Procedure: PBS: phosphate-buffered saline (negative control). This experiment was performed in vivo in the mouse. These were single 3 mg/kg dose i.v., and Hepcidin mRNA knockdown in liver was measured after 2 and 7 days.
LNP569 is a lipid nanoparticle preparation of the RNAi agent.
Two timepoints—48 and 168 hrs post-injection (both 3 mg/kg).
Assess hepcidin knockdown in liver (mRNA-qPCR)

Molecule | % Res mRNA_Huh7_15 nM (human APOC3) | also measured
1 (sense GACAGUAUUCUCAGUGCU; antisense AGCACUGAGAAUACUGU; chemical modifications, end caps, chemistry not fully specified) [compound 1] | 5.8% | 
3 (sense GACAGUAUUCUCAGUGCU; antisense AGCACUGAGAAUACUUC; chemical modifications, end caps, chemistry not fully specified) [compound 3] | 11.3% | 
4 (sense GACAGUAUUCUCAGUGCU; antisense AGCACUGAGAAUACGUC; chemical modifications, end caps, chemistry not fully specified) [compound 4] | 9.5% | 
5 (sense GACAGUAUUCUCAGUGCU; antisense AGCACUGAGAAUAUGUC; chemical modifications, end caps, chemistry not fully specified) [compound 5] | 25.6% | 
6 (sense GACAGUAUUCUCAGUGCU; antisense AGCACUGAGAAUCUGUC; chemical modifications, end caps, chemistry not fully specified) [compound 6] | 33.1% | 
7 (sense GACAGUAUUCUCAGUGCU; antisense AGCACUGAGAAACUGUC; chemical modifications, end caps, chemistry not fully specified) [compound 7] | 22% | 
8 (sense GACAGUAUUCUCAGUGCU; antisense AGCACUGAGAUACUGUC; chemical modifications, end caps, chemistry not fully specified) [compound 8] | 23.8% | 
9 (sense GACAGUAUUCUCAGUGCU; antisense AGCACUGAGAUACUGUC; siRNA; 2'-modified nucleotides, phosphates, 3' end caps, further chemistry not given here) [compound 9] | 56.7% | 
10 (sense GACAGUAUUCUCAGUGCU; antisense AGCACUGAAAUACUGUC; siRNA; modified with OMe, F, MOE, ribitol spacers, code 006 undefined, further chemistry not given here) [compound 10] | 55% | 
11 (sense GACAGUAUUCUCAGUGCU; antisense AGCACUGGAAUACUGUC; siRNA; modified with OMe, F, MOE, ribitol spacers, code 006 undefined, further chemistry not given here) [compound 11] | 22.3% | 
12 (sense GACAGUAUUCUCAGUGCU; antisense AGCACUAGAAUACUGUC; siRNA; modified with OMe, F, MOE, ribitol spacers, code 006 undefined, further chemistry not given here) [compound 12] | 10.5% | 
13 (sense GACAGUAUUCUCAGUGCU; antisense AGCACGAGAAUACUGUC; siRNA; modified with OMe, F, MOE, DNA, ribitol spacers, code 006 undefined, further chemistry not given here) [compound 13] | 4.4% | 
14 (sense GACAGUAUUCUCAGUGCU; antisense AGCAUGAGAAUACUGUC; siRNA; modified with OMe, F, MOE, ribitol spacers, code 006 undefined, further chemistry not given here) [compound 14] | 3.2% | 
15 (sense GACAGUAUUCUCAGUGCU; antisense AGCCUGAGAAUACUGUC; siRNA; modified with OMe, F, MOE, ribitol spacers, code 006 undefined, further chemistry not given here) [compound 15] | 18.3% | 
16 (sense GACAGUAUUCUCAGUGCU; antisense AGACUGAGAAUACUGUC; siRNA; modified with OMe, F, MOE, ribitol spacers, code 006 undefined, further chemistry not given here) [compound 16] | 6.8% | 
17 (sense GACAGUAUUCUCAGUGCU; antisense ACACUGAGAAUACUGUC; chemical modifications, end caps, chemistry not fully specified) [compound 17] | 57.4% | 
18 (sense GACAGUAUUCUCAGUGCU; antisense GCACUGAGAAUACUGUC; chemical modifications, end caps, chemistry not fully specified) [compound 18] | 7.6% | 
19 (sense GACAGUAUUCUCAGUGCU; antisense AGCACUGAGAAUACUGUC; chemical modifications, end caps, chemistry not fully specified) [compound 19] | 6.3% | 
20 (sense GACAGUAUUCUCAGUGCU; antisense AGCACUGAGAAUACUGUC; siRNA; chemical modifications, end caps, further chemistry not given here) [compound 20] | 9.7% | 
21 (sense GpGpApC004pApGpU004pApU004pU004pC004pU004pC004pApGpU004pGpC004pU004pU002pU002; antisense ApGpCpApCpU004pGpApGpApApU004pApCpU004pGpU004pCpCpU002pU002; chemical modifications, as printed in the source, key not given here) [compound 21] | 6.5% | 
C1C2CC3CC1CC(C2)C3 [Adamantane, adamantane] |  | ability to mediate RNA interference (FVII (Factor VII)): allow the RNAi agent to perform RNA interference
OCCCCCCO [C6, 1,6-hexane-diol] |  | Hepcidin KD at 5 nM in vitro (%) (Hepcidin (HAMP) mRNA): 66%; Hepcidin knockdown in vivo at 48 hours post-dose [1]: more efficacious than the 21-mer format; also recorded: able to mediate Hepcidin knockdown; ability to mediate RNA interference (FVII (Factor VII)): allow the RNAi agent to perform RNA interference
OCCOCCOCCO [Triethylene glycol, triethylene glycol] |  | ability to mediate RNA interference (FVII (Factor VII)): allow the RNAi agent to perform RNA interference
COc1ccc(C(OCc2cc(Br)cc(CO)c2)(c2ccccc2)c2ccc(OC)cc2)cc1 [compound 2, (3-((bis(4-methoxyphenyl)(phenyl)methoxy)methyl)-5-bromophenyl)methanol] | 3.4% | 
